In ChEMBL document CHEMBL4819030, “Microbial Transformation of Broussochalcones A and B by Aspergillus niger” (J Nat Prod, 2021):
Calls of active or inactive are those of the source. The calls are words filed in the database; no cut-off is given here.

Experiments:
Assay type in all cases: functional, cell-based
HT-29 = experiment: Cytotoxicity against human HT29 cells incubated for 24 hrs by MTT assay
HepG2 = experiment: Cytotoxicity against human HepG2 cells incubated for 48 hrs by MTT assay
A549 = experiment: Cytotoxicity against human A549 cells incubated for 48 hrs by MTT assay
A375P = experiment: (§1) Cytotoxicity against human A375P cells incubated for 24 hrs by MTT assay
MCF7 = experiment: Cytotoxicity against human MCF7 cells incubated for 24 hrs by MTT assay
[1] = as §1

SMILES | Activity (HT-29) | Activity (HepG2) | Activity (A549) | Activity (A375P) | Activity (MCF7) | IC50 (HT-29; HT-29, 24 h) [µM] | IC50 (A549; A549, 48 h) [µM] | IC50 [1] [µM] | IC50 (MCF7; MCF7, 24 h) [µM]
CC(C)(O)[C@@H](O)Cc1cc(C(=O)CCc2ccc(O)c(O)c2)c(O)cc1O | inactive | inactive | inactive | inactive | inactive | – | – | – | –
CC1(C)O[C@@H]1Cc1cc(C(=O)CCc2ccc(O)cc2)c(O)cc1O | inactive | inactive | inactive | inactive | inactive | – | – | – | –
CC1(C)O[C@H]1Cc1cc(C(=O)/C=C/c2ccc(O)cc2)c(O)cc1O | inactive | inactive | inactive | inactive | inactive | – | – | – | –
CC(C)(O)[C@H](O)Cc1cc(C(=O)/C=C/c2ccc(O)cc2)c(O)cc1O | inactive | inactive | inactive | inactive | inactive | – | – | – | –
CC(C)(O)[C@@H](O)Cc1cc(C(=O)CCc2ccc(O)cc2)c(O)cc1O | inactive | inactive | inactive | inactive | inactive | – | – | – | –
CC(C)(O)[C@H](O)Cc1cc(C(=O)/C=C/c2ccc(O)c(O)c2)c(O)cc1O | inactive | inactive | inactive | inactive | inactive | – | – | – | –
CC(C)(O)[C@H]1Cc2cc(C(=O)CCc3ccc(O)cc3)c(O)cc2O1 | inactive | inactive | inactive | inactive | inactive | – | – | – | –
CC1(C)O[C@@H]1Cc1cc(C(=O)CCc2ccc(O)c(O)c2)c(O)cc1O | inactive | inactive | inactive | inactive | inactive | – | – | – | –
CC(C)=CCc1cc(C(=O)CCc2ccc(O)c(O)c2)c(O)cc1O | – | inactive | – | – | – | 3.8 | 3.8 | 3.8 | 3.8
CC1(C)O[C@H]1Cc1cc(C(=O)/C=C/c2ccc(O)c(O)c2)c(O)cc1O | inactive | inactive | inactive | inactive | inactive | – | – | – | –
